Measurements as given in US20060246117A1, “Animal husbandry method for administering a vitamin E derivative and formulation” (ADISSEO FRANCE S.A.S., priority 2003, published 2006).

How the values were obtained:
CaCo-2 = experiment: Absorption of Tol and Tac by CaCo-2 cells in M20 medium, one hour at 37° C., non-ethoxylated versus ethoxylated emulsifiers (Example 3); format: in vitro ADME
Description: Absorption assays are carried out, using the same cell line as that described above, by incubating the cells for 3 hours in a physiological medium which is similar to the intestinal medium and which contains cholesterol ester hydrolase (CEH), the pancreatic enzyme which hydrolyzes the Tac into vitamin E in the animal, and sodium taurocholate, which represents the bile salts. This medium comes in the form of an oil-in-water emulsion, i.e. in the form of micelles, and is commercially identified under the reference M20. The Tac, and, where appropriate, the emulsifier being tested, are placed in this medium. The concentration, in vitamin E equivalent, which is introduced into each well in the form of Tac is 156 μM.
The general experimental conditions of the protocol described in Example 2, 2.1) are identical apart from the fact that the area of the wells and the concentration of Tac introduced into the M20 medium differ. The area of the wells is 6.5 cm^2 and the concentration of Tac is 23.7 μM/cm^2.
Four experiments are carried out, with each being repeated three times, using a protocol which comprises one hour of incubation at 37° C., as follows: • 1) M20 on its own, at the rate of 2 mM; the Tac is therefore on its own without emulsifier; • 2) M20+SML (sorbitan monolaurate) emulsifier • 3) M20+SMP (sorbitan monopalmitate) emulsifier • 4) M20+ESML (ethoxylated sorbitan monolaurate)
In the case of each of the assays 2), 3) and 4), the ratio by weight of the added emulsifier to the Tac (in vitamin E equivalent) is 1:6.9.
Four experiments are carried out, with each being repeated three times, using a protocol which comprises one hour of incubation at 37° C., as follows: • 1) M20 on its own; the Tac is therefore on its own without emulsifier; • 2) M20+SML (sorbitan monolaurate) emulsifier • 3) M20+SMP (sorbitan monopalmitate) emulsifier • 4) M20+MOSE (ethoxylated sorbitan monooleate)

[1] = Release of Tac from its silica support (Example 4); format: physicochemical; details: 2.5 hours, 38° C., Tac on silica
Description: The present example tests the effect of an emulsifier according to the invention, i.e. SMO (sorbitan monooleate), on the release of Tac which is attached to silica. To this end, use is made of Tac on a silica support, in a ratio by weight of 1:1, for the assay without emulsifier, and of Tac+emulsifier (SMO) on silica in a ratio by weight of 50:5:45.
10 g of Tac (where appropriate +SMO) on the above silica (that is a final concentration of Tac of 10 mM) are incubated for 2.5 hours, while stirring and at 38° C., under different pH conditions in the following solutions:
either 35 mM phosphate, pH 6.5, 0.15 mM NaCl
or 35 mM HCl/glycine, pH 2.5

[2] = system: cholesterol ester hydrolase (pancreatin); experiment: Combined release of Tac from silica support and hydrolysis of the released Tac to Tol (Example 6); format: in vitro ADME
Description: The present example tests the effect of an emulsifier according to the invention, i.e. SMO (sorbitan monooleate). For this purpose, use is made of Tac on a silica support, in a ratio by weight of 1:1, for the assay without emulsifier, and of Tac+emulsifier (SMO) on silica, in a ratio by weight of 50:5:45.
8 mg of Tac (where appropriate +SMO) on the above silica (that is a final concentration of Tac of 16.9 μM) are incubated for 3 hours, while stirring and at 37° C., in the following solutions:
35 mM phosphate, pH 6.5, […] NaCl, pancreatin (2 mg) and bile salts (20 mM).
Before incubating, and after 1 hour and 3 hours, respectively, of incubation under the aforementioned conditions, the concentration of vitamin E in the solution is measured in comparison with the initial quantity of Tac.

[3] = Digestibility of vitamin E from faecal excretion in caecectomized cocks (Example 7); format: in vivo; details: treatment 1: Tac 40 mg, no emulsifier
Description: Two series of tests were carried out on caecectomized cocks. The first series comprised 32 cocks while the second comprised 51 cocks. They were fed, by “wet gavage”, with a feed which incorporated Tac (vitamin E acetate) or Tac combined, in different proportions, with one or two alimentary emulsifiers according to the invention. The Tac or the combined Tac was formulated in gelatin capsules, which were obtained by using a pipette to deposit a predetermined quantity of Tac or combined Tac in a capsule half shell and then closing the capsule with the other half shell. 48 hours after the ingestion of feed from a bowl, the faeces are collected and the excretion of the vitamin in this material is determined. To this end, the vitamin E is extracted with a vitamin E solvent, for example hexane, and the quantity extracted is then determined by HPLC chromatography. The proportion of vitamin E which has been digested is deduced from the proportion which has been excreted.

[4] = biological target: T1, cholesterol ester hydrolase (Homo sapiens, UniProt P19835); experiment: Tac hydrolysis in M40 micelle above CaCo-2 cells, 2 hours (Example 8.2); format: in vitro ADME; details: Tac 67 nmol/cm^2; Tac/emulsifier ratio 100/1; 2 hours at 37° C.
T1 sequence (P19835 21-753): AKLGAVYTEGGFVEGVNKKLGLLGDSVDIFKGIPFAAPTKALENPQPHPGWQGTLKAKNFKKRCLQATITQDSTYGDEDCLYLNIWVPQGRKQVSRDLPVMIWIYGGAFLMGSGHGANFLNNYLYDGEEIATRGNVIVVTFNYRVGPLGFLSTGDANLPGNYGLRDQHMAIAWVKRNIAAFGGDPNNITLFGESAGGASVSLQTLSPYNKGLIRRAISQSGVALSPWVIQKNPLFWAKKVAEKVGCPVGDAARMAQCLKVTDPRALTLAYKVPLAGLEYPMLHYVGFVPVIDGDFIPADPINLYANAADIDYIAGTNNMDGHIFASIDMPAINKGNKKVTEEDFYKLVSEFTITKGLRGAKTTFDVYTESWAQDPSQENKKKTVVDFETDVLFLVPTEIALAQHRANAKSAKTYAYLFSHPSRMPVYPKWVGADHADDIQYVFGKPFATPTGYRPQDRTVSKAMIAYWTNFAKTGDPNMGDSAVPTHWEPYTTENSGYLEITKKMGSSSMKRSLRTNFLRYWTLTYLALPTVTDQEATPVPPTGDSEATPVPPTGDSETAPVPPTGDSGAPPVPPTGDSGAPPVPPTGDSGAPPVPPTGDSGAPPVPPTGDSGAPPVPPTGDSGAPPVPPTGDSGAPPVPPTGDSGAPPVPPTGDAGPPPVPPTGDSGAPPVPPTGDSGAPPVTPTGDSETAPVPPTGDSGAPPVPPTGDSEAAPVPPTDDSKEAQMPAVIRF
Description: The conditions under which the tests are carried out are as follows: • Cell model: CaCo-2 cells • Area of the wells: 4.2 cm^2 • Quantity of Tac: 67 nmol/cm^2 • Solution employed: M40 micelle in accordance with Mathias et al.
Treatments: • A: Without emulsifier • B: With emulsifier (SMP+SMO mixture; ratio 1/1), Tac/emulsifier ratio 100/1
Period of incubation: 2 hours at 37° C.
Analyses: Analysis of Tac in the medium above the cells for the purpose of calculating the degree of hydrolysis.

[5] = Plasma vitamin E level of piglets after intraduodenal infusion (Example 9); format: in vivo; details: 800 IU single bolus intraduodenally; pooled samples 4-24 h postprandially
Text: In order to exclude gastric influences or impacts of the carrier, the emulsifier of the invention was intraduodenally infused in liquid form (oil).
Three weaning piglets (initial BW 12 kg) were surgically fitted with a silicon catheter in the jugular vein as well as with a silicon cannula in the proximal duodenum according to the procedure described by Thaela et al. (1995).
A standard weaner diet without vitamin E supplementation was fed to the piglets. The animals were fed a daily feed allowance corresponding to 2.0×W^0.75, distributed twice in equal meals (08.00 h and 16.00). The animals were adapted for 7d to the basal diet. […] 2 treatments×3 piglets×2 repetitions (cross-over)
R1: 800 IU Vitamin E standard oil, infused as a single bolus intraduodenally
Blood samples were taken 4, 8, 12, 16, 20 and 24 h postprandially, plasma was obtained and samples were pooled. After the experiment, the animals were newly adapted to the basal diet for 7d before the 2nd repetition was done accordingly. The vitamin E content in the plasma was determined by HPLC according to the method by Castan et al. (2005). Data were analysed using the ANOVA procedure of Statview.

[6] = Plasma and liver vitamin E levels of broilers fed graded doses (Example 10); format: in vivo, Ross male broiler chicks; details: d35, diets fed d15 to d34
Text: R3: Control+120 IU/kg standard Vit E
R4: Control+200 IU/kg standard Vit E
Three hundred Ross male broiler chicks were divided into 6 groups and housed in 6 pens. From d0 to d14, all animals were fed the same, vitamin E free, basal diet.
The animals received the pelleted experimental diets (R1-R6) ad libitum from d15 to d34. On d35, 15 broilers per treatment, which were closest to the mean body weight, were selected. Plasma samples were collected by intracardiac puncture. Birds were then slaughtered by pentobarbital injection. Livers were dissected, deep frozen in liquid nitrogen and immediately ground. The vitamin E levels in plasma or livers were determined by HPLC according to the method by Castan et al. (2005). Data were analysed using the ANOVA procedure of Statview.

[7] = Vitamin E levels in egg yolks of laying hens (Example 11); format: in vivo, ISA brown laying hens; details: supplementation level of 100 mg/kg feed
Description: Forty ISA brown laying hens, 23 weeks of age, were equally divided into 4 groups and individually housed in cages. The animals received the meal experimental diets (R1-R4) ad libitum for 21 days. The eggs layed on D20 to 21 were collected, weighed and stored at +4° C. The vitamin E levels in the egg yolk were determined by HPLC according to the method by […] et al. (2005). Data were analysed using the ANOVA procedure of Statview.

[8] = in vivo
Description: (§1) R1: Basal diet+20 IU/kg standard Vit E (in the form of dl-α-tocopheryl acetate)
R2: Control+150 IU/kg standard Vit E
(§2) Thirty crossbred weanling piglets (8.0 kg live weight) were divided into three groups (R1, R2, R3), kept individually and distributed according to a completely randomized block design. The piglets were fed ad libitum for 14 days on a corn-wheat based diet (Table 11). The diet was supplemented with either 20 IU/kg (R1) or 150 IU/kg (R2) standard DL-α-tocopheryl acetate. […] On day 15 of the experiment the animals were slaughtered and their liver dissected, immediately frozen under liquid nitrogen and ground to powder. Muscle samples (muscularis glutaeus maximus) of about 9 cm2 were obtained from the left hind leg and frozen immediately. The vitamin E content of the samples was determined by HPLC (Castan et al. 2005) and data were statistically analysed using one-way ANOVA.

[9] = oral route, animals; cited from earlier work
[10] = Vitamin E levels in liver and muscle of piglets (Example 13); details: points at 20 IU/kg and 150 IU/kg
Description: as §1
R2: Control+150 IU/kg standard Vit E
as §2

[11] = Example 3.2, emulsifier:Tac 1:6.9
[12] = Example 3.3, emulsifier:Tac 1:6.9

CC(=O)Oc1c(C)c(C)c2c(c1C)CC[C@@](C)(CCC[C@H](C)CCC[C@H](C)CCCC(C)C)O2 [Tac, d,l-α-tocopheryl acetate]
Absorption, Tac (CaCo-2; [11]): 1.68 nmol/cm^2 | Absorption, Tol (CaCo-2; [11]): 1.77 nmol/cm^2 | Absorption, Vitamin E (Tol + Tac in vitamin E equivalent) (CaCo-2; [11]): 3.45 nmol/cm^2 | Absorption, Tac (CaCo-2; [12]): 2.31 nmol/cm^2 | Absorption, Tol (CaCo-2; [12]): 1.29 nmol/cm^2 | Absorption, Vitamin E (Tol + Tac in vitamin E equivalent) (CaCo-2; [12]): 3.60 nmol/cm^2 | % of vitamin E released at pH 2.5 ([1]; 35 mM HCl/glycine, pH 2.5): 46.5% | % of vitamin E released at pH 6.5 ([1]; 35 mM phosphate, pH 6.5): 59.6% | concentration of vitamin E in the solution in comparison with the initial quantity of Tac ([2]; time 0 minutes (before incubating)): 1.21 | concentration of vitamin E in the solution in comparison with the initial quantity of Tac ([2]; time 60 minutes): 1.30 | concentration of vitamin E in the solution in comparison with the initial quantity of Tac ([2]; time 180 minutes): 5.25 | Mean digestibility ([3]; first series, faeces at 48 hours): 24.8% | Mean digestibility ([3]; second series): 26.1% | Tac hydrolysis [4]: 9.7% | overall plasma vitamin E level [5]: 5.72 nmol/mL | slope of the curve of liver vitamin E level versus dietary dose ([6]; liver): 0.1896 | slope of the curve of plasma vitamin E level versus dietary dose ([6]; plasma): 0.1211 | total vitamin E content of the yolk [7]: 4.07 mg | increase of vitamin E content in liver as compared to piglets fed 20 IU/kg DL-α-tocopheryl acetate [8]: 51% | increase of vitamin E content in muscle as compared to piglets fed 20 IU/kg DL-α-tocopheryl acetate [8]: 35% | bioavailability [9]: ≤ 40% | slope of the regression curve for vitamin E contents in livers [10]: 1.89 | slope of the regression curve for vitamin E contents in muscle samples [10]: 0.89

Cc1c(C)c2c(c(C)c1O)CC[C@@](C)(CCC[C@H](C)CCC[C@H](C)CCCC(C)C)O2 [vitamin E, d-α-tocopherol]
bioavailability [9]: ≤ 50%
